Results: patent US20240238423A9, “TETRAHYDROISOQUINOLINE HETEROBIFUNCTIONAL BCL-XL DEGRADERS” (Treeline Biosciences, Inc., priority 2022, published 2024)

Molecular target: T1, Human BCL-XL protein (N-terminal HiBiT tagged BCL-XL in HT1080 cells) (Homo sapiens, UniProt Q07817)
T1 construct: expressed in transfected cells; host or cells: HT-1080 (ATCC CCL-121), stably transduced with lentivirus pLV-UBC-N-HiBiT-BCL-XL-PGK-puro and selected with puromycin
Assay: HiBiT based degradation assay
Assay type: cell-based
Conditions: HT1080 cells expressing HiBiT-BCL-XL, 24 h; for Ymin (24 h): BCL-XL degradation normalized with DMSO control; for DC50: BCL-XL degradation, read-out: EC50 (24 h)
In short: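 This HiBiT degradation assay measured loss of BCL-XL in HT1080 cells that stably express an N-terminal HiBiT-BCL-XL fusion delivered by lentivirus. Cells were added to compound-spotted 384-well plates, and luminescence was read on a PHERAstar FSX reader. Signal was expressed relative to DMSO controls, curves were fitted by four-parameter logistic regression, and for hook-shaped curves the Ymin point served as the bottom plateau when calculating EC50.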

T1 sequence (Q07817 whole entry): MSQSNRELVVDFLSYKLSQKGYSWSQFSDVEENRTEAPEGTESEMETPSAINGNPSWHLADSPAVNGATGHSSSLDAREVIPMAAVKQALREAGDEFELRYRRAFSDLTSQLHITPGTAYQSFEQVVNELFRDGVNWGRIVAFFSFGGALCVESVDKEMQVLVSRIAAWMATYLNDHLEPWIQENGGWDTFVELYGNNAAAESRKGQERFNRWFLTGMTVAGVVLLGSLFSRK

SMILES | Ymin (24 h) | DC50
Cc1c(OCCCC2CCN(CCc3ccc4c(C5CCC(=O)NC5=O)nn(C)c4c3)CC2)cccc1-c1ccc(N2CCc3cccc(C(=O)Nc4nc5ccccc5s4)c3C2)nc1C(=O)O (centres unmarked) [Compound 303, 6-(8-(benzo[d]thiazol-2-ylcarbamoyl)-3,4-dihydroisoquinolin-2(1H)-yl)-3-(3-(3-(1-(2-(3-(2,6-dioxopiperidin-3-yl)-1-methyl-1H-indazol-6-yl)ethyl)piperidin-4-yl)propoxy)-2-methylphenyl)picolinic acid] | A (Ymin < 50%) | < 100 nM
Cc1c(OCCCC2CCN(Cc3ccc4c(C5CCC(=O)NC5=O)nn(C)c4c3)CC2)cccc1-c1ccc(N2CCc3cccc(C(=O)Nc4nc5ccccc5s4)c3C2)nc1C(=O)O (centres unmarked) [Compound 304, 6-(8-(benzo[d]thiazol-2-ylcarbamoyl)-3,4-dihydroisoquinolin-2(1H)-yl)-3-(3-(3-(1-((3-(2,6-dioxopiperidin-3-yl)-1-methyl-1H-indazol-6-yl)methyl)piperidin-4-yl)propoxy)-2-methylphenyl)picolinic acid] | B (50% ≤ Ymin < 70%) | < 100 nM
Cc1c(OCCCC2CCN(CCCc3ccc4c(C5CCC(=O)NC5=O)nn(C)c4c3)CC2)cccc1-c1ccc(N2CCc3cccc(C(=O)Nc4nc5ccccc5s4)c3C2)nc1C(=O)O (centres unmarked) [Compound 305, 6-(8-(benzo[d]thiazol-2-ylcarbamoyl)-3,4-dihydroisoquinolin-2(1H)-yl)-3-(3-(3-(1-(3-(3-(2,6-dioxopiperidin-3-yl)-1-methyl-1H-indazol-6-yl)propyl)piperidin-4-yl)propoxy)-2-methylphenyl)picolinic acid] | A (Ymin < 50%) | < 100 nM
Cc1c(OCCCC2CCN(C3CCN(c4ccc5c(C6CCC(=O)NC6=O)nn(C)c5c4)CC3)CC2)cccc1-c1ccc(N2CCc3cccc(C(=O)Nc4nc5ccccc5s4)c3C2)nc1C(=O)O (centres unmarked) [Compound 306, 6-(8-(benzo[d]thiazol-2-ylcarbamoyl)-3,4-dihydroisoquinolin-2(1H)-yl)-3-(3-(3-(1′-(3-(2,6-dioxopiperidin-3-yl)-1-methyl-1H-indazol-6-yl)-[1,4′-bipiperidin]-4-yl)propoxy)-2-methylphenyl)picolinic acid] | A (Ymin < 50%) | < 100 nM
Cc1c(OCCCc2ccc(CC(=O)Nc3ccc4c(C5CCC(=O)NC5=O)nn(C)c4c3)cn2)cccc1-c1ccc(N2CCc3cccc(C(=O)Nc4nc5ccccc5s4)c3C2)nc1C(=O)O (centres unmarked) [Compound 309, 6-[8-(1,3-benzothiazol-2-ylcarbamoyl)-3,4-dihydro-1H-isoquinolin-2-yl]-3-[3-[3-[5-[2-[[3-(2,6-dioxo-3-piperidyl)-1-methyl-indazol-6-yl]amino]-2-oxo-ethyl]-2-pyridyl]propoxy]-2-methyl-phenyl]pyridine-2-carboxylic acid] | B (50% ≤ Ymin < 70%) | 100 to 1000 nM
Cc1c(O[C@H]2CC[C@@H](CCCC3CCN(c4ccc5c(C6CCC(=O)NC6=O)nn(C)c5c4)CC3)CC2)cccc1-c1ccc(N2CCc3cccc(C(=O)Nc4nc5ccccc5s4)c3C2)nc1C(=O)O (some centres unmarked) [Compound 311a, 6-(8-(benzo[d]thiazol-2-ylcarbamoyl)-3,4-dihydroisoquinolin-2(1H)-yl)-3-(3-(((1r,4s)-4-(3-(1-(3-(2,6-dioxopiperidin-3-yl)-1-methyl-1H-indazol-6-yl)piperidin-4-yl)propyl)cyclohexyl)oxy)-2-methylphenyl) picolinic acid] | B (50% ≤ Ymin < 70%) | < 100 nM
Cc1c(O[C@H]2CC[C@H](CCCC3CCN(c4ccc5c(C6CCC(=O)NC6=O)nn(C)c5c4)CC3)CC2)cccc1-c1ccc(N2CCc3cccc(C(=O)Nc4nc5ccccc5s4)c3C2)nc1C(=O)O (some centres unmarked) [Compound 311b, 6-(8-(benzo[d]thiazol-2-ylcarbamoyl)-3,4-dihydroisoquinolin-2(1H)-yl)-3-(3-(((1s,4r)-4-(3-(1-(3-(2,6-dioxopiperidin-3-yl)-1-methyl-1H-indazol-6-yl)piperidin-4-yl)propyl)cyclohexyl)oxy)-2-methylphenyl)picolinic acid] | B (50% ≤ Ymin < 70%) | < 100 nM
